6 compounds from patent publication US20220395496A1 (Hoffmann-La Roche Inc., priority 2019, published 2022) can be followed below.

This assay addresses T1, human TLR8 (Homo sapiens, UniProt Q9NR97).
T1 sequence (Q9NR97 27-1041): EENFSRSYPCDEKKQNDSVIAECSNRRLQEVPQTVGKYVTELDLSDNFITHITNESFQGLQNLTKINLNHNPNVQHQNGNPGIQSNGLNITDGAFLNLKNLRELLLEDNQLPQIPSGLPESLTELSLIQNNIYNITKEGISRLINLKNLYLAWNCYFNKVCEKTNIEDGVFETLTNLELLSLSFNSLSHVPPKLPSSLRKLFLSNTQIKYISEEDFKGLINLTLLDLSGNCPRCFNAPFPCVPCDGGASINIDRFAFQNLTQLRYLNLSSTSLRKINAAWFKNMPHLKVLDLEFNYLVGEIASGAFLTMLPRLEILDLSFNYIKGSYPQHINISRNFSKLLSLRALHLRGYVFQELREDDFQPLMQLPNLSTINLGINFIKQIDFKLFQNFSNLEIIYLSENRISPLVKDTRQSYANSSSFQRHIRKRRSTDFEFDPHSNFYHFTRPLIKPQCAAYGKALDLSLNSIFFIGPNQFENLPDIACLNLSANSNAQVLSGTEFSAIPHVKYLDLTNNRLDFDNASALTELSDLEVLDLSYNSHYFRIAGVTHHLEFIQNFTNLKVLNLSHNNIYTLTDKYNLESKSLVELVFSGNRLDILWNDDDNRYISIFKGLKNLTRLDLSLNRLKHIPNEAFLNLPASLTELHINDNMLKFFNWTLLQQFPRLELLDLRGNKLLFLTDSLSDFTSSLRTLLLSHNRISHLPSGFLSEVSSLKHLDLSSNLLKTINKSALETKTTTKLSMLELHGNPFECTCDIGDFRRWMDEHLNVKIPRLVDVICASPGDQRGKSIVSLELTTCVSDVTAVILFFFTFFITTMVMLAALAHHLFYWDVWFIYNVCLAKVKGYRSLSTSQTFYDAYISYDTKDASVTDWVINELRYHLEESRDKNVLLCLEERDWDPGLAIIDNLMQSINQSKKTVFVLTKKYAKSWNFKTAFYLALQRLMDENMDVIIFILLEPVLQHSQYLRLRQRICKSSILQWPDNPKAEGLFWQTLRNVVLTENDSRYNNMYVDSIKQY
Description: HEK293-Blue-hTLR-8 cells assay (SEAP reporter, R848 stimulation). The format is cell-based. The following applies: HEK293-Blue-hTLR8 cells, R848, 20 hrs; lowest tested concentration 0.0032. The protocol:
The following tests were carried out in order to determine the activity of the compounds of this invention in HEK293-Blue-hTLR-7/8/9 cells assay.
HEK293-Blue-hTLR-8 Cells Assay:
A stable HEK293-Blue-hTLR-8 cell line was purchased from InvivoGen (Cat. #: hkb-htlr8, San Diego, Calif., USA). These cells were originally designed for studying the stimulation of human TLR8 by monitoring the activation of NF-κB. A SEAP (secreted embryonic alkaline phosphatase) reporter gene was placed under the control of the IFN-β minimal promoter fused to five NF-κB and AP-1-binding sites. The SEAP was induced by activating NF-κB and AP-1 via stimulating HEK-Blue hTLR8 cells with TLR8 ligands. Therefore the reporter expression was declined by TLR8 antagonist under the stimulation of a ligand, such as R848, for incubation of 20 hrs. The cell culture supernatant SEAP reporter activity was determined using QUANTI-Blue™kit (Cat. #: rep-qb1, Invivogen, San Diego, Calif., USA) at a wavelength of 640 nm, a detection medium that turns purple or blue in the presence of alkaline phosphatase.
HEK293-Blue-hTLR8 cells were incubated at a density of […] cells/mL in a volume of 170 μL in a 96-well plate in Dulbecco's Modified Eagle's medium (DMEM) containing 4.5 g/L glucose, 50 U/mL penicillin, […], […], 2 mM L-glutamine, 10% (v/v) heat-inactivated fetal bovine serum with addition of 20 μL test compound in a serial dilution in the presence of final DMSO at 1% and 10 μL of 60 uM R848 in above DMEM, perform incubation under 37° C. in a CO2 incubator for 20 hrs. Then 20 μL of the supernatant from each well was incubated with 180 μL Quanti-blue substrate solution at 37° C. for 2 hrs and the absorbance was read at 620˜655 nm using a spectrophotometer. The signalling pathway that TLR8 activation leads to downstream NF-κB activation has been widely accepted, and therefore similar reporter assay was modified for evaluating TLR8 antagonist.
What is called IC50 is the concentration needed to halve the response being measured. A higher IC50 goes with a need for much substance. Regarding `C[C@H]1C[C@@H](NCc2cnc(N3CCN[C@H](C)C3)nc2)CN(c2ccc(C#N)c3ncccc23)C1` [Example 28, 5-[(3S,5R)-3-methyl-5-[[2-[(3R)-3-methylpiperazin-1-yl]pyrimidin-5-yl]methylamino]-1-piperidyl]quinoline-8-carbonitrile], the IC50 is below 3.2 nM.
Consider `C[C@H]1C[C@@H](NCc2cnc(N3CCN[C@@H](C)C3)nc2)CN(c2ccc(C#N)c3ncccc23)C1` [Example 29, 5-[(3S,5R)-3-methyl-5-[[2-[(3S)-3-methylpiperazin-1-yl]pyrimidin-5-yl]methylamino]-1-piperidyl]quinoline-8-carbonitrile], for which the IC50 is below 3.2 nM.
Turning to `C[C@H]1C[C@@H](NCc2ccc3c(n2)CCNC3)CN(c2ccc(C#N)c3ncccc23)C1` [Example 30, 5-[(3S,5R)-3-methyl-5-(5,6,7,8-tetrahydro-1,6-naphthyridin-2-ylmethylamino)-1-piperidyl]quinoline-8-carbonitrile], the IC50 is below 3.2 nM.
Compound `C[C@H]1C[C@@H](NCc2cnc(N3CCNCC3)cn2)CN(c2ccc(C#N)c3ncccc23)C1` [Example 31, 5-[(3S,5R)-3-methyl-5-[(5-piperazin-1-ylpyrazin-2-yl)methylamino]-1-piperidyl]quinoline-8-carbonitrile] registered an IC50 below 3.2 nM.
In the case of `C[C@H]1C[C@@H](NCc2ccccc2)CN(c2ccc(C#N)c3ncccc23)C1` [Example R1, reference compound] it was 20 nM.
In the case of `C[C@H]1C[C@@H](N2Cc3ccccc3C2)CN(c2ccc(C#N)c3ncccc23)C1` [Example R2, reference compound] it was 110 nM.
